The results in this text go back to US11124785B2, “Rothia subtilisins, S8A family proteases, as therapeutic enzymes for application in gluten intolerance disorders” (TRUSTEES OF BOSTON UNIVERSITY, priority 2016, dated 2021).

In test [1] the test system is α-gliadin derived 33-mer peptide. The test can be described thus: Degradation of the 33-mer peptide (RP-HPLC). In kind it is biochemical. As to conditions: 33-mer 250 μg/ml, enzyme 57 μg/ml. As for the experimental part:
FIG. 8D is a representative chromatogram of the RP-HPLC analysis of the degradation of the gliadin-derived 33-mer (250 μg/ml) incubated for 0, 15, 30 and 120 min with NattoK 57 μg/ml).
(§1) Degradation of mixed gliadins and the 33-mer peptide—Mixed gliadins were obtained from Sigma. A synthetic highly immunogenic α-gliadin derived 33-mer peptide (26) was synthesized at a purity of >90% (21st Century Biochemicals). Mixed gliadins or the 33-mer peptide (each at final concentration 250 μg/ml) were incubated with Rmep or subtilisin A (each at 57 μg/ml) in 50 mM TrisHCl, pH 8.0. After t=0, 15 min, 30 min, and 2 h, 100 μl sample aliquots were removed and boiled. Gliadin degradation was assessed by 4-12% SDS-PAGE followed by Coomassie staining, and 33-mer degradation was determined by RP-HPLC.
Reversed-phase high performance liquid chromatography (RP-HPLC)—Separation of the 33-mer peptide and its fragments was achieved by RP-HPLC, using buffer A (0.1% trifluoroacetic acid) and buffer B (0.1% trifluoroacetic acid in 80% acetonitrile) at a gradient of 0-55% buffer B over 75 min time interval. The equipment used was an HPLC Model 715 (Gilson, Middleton, Wis.) and a C-18 column (TSK-GEL […], ODS-120T, TOSOHaas, Montgomeryville, Pa.) (22, 25).

The subject of the next test is Z-QQP-pNA. The experiment in a line: Hydrolysis of paranitroanilide-derivatized substrate Z-QQP-pNA. As to conditions: substrate 200 μM, pH 8.0 (data not shown). In kind it is biochemical. How it is done:
(§2) Hydrolysis of paranitroanilide-derivatized substrates—Paranitroanilide (pNA)-derivatized tripeptide substrates were chemically synthesized at >90% purity (21st Century Biochemicals, Marlborough, Mass.). The substrates obtained were Z-YPQ-pNA, Z-QQP-pNA, Z-LPY-pNA, Z-PFP-pNA, Z-PPF-pNA, where Z=benzyloxycarbonyl, Y=tyrosine, P=proline, Q=glutamine, L=leucine, and F=phenylalanine Suc-AAPF-pNA (SEQ ID NO: 4) was obtained from Sigma, where Suc=N-succinyl and A=alanine. The peptides were dissolved in 75-100% DMSO at 10 mM, and were used at a final concentration of 200 μM in 50 mM TrisHCl pH 8.0. Purified Rothia enzyme or subtilisin A from Bacillus licheniformis (Sigma) were tested at final concentrations of 1 μg/ml. Some experiments were conducted in the presence of inhibitors 4-(2-Aminoethyl) benzenesulfonyl fluoride (AEBSF), Aprotinin, E-64, EDTA, phenylmethanesulfonyl fluoride (PMSF) and Eglin C, which were tested at final concentrations of 10 mM, 0.08 mM, 0.1 mM, 1.5 mM, 1 mM, and 0.06-1.2 μM, respectively. Enzymes were preincubated with the inhibitors for 20 min before adding Suc-AAPF-pNA (SEQ ID NO: 4). Substrate hydrolysis was monitored for 10 h at 405 nm using a Genios microtiter plate reader (Tecan, Männedorf, Switzerland) in the kinetic mode at 37° C.

The subject of test [2] is Suc-AAPF-pNA. The experiment in a line: pH activity profile of Rmep with Suc-AAPF-pNA. In kind it is biochemical. To be noted: Suc-AAPF-pNA 200 μM; citric acid/phosphate buffer mixtures pH 2-12. How it is done:
Activity of Rmep in 0.1M Citric acid/0.2M phosphate buffer mixtures, pH 2-12, was measured with Suc-AAPF-pNA (SEQ ID NO: 4) (200 μM) as the substrate.
as §2, with “Enzymes were preincubated with the inhibitors for 20 min before adding Suc-AAPF-pNA (SEQ ID NO: 4).” left out

Test [3] concerns Suc-AAPF-pNA. The test can be described thus: Hydrolysis of paranitroanilide-derivatized substrate Suc-AAPF-pNA. In kind it is biochemical. To be noted: substrate 200 μM; enzyme 1 μg/ml (NattoK: dilution series); 50 mM TrisHCl pH 8.0, 37° C. As for the experimental part: FIG. 4A and FIG. 4B are representative graphs of the hydrolysis of the substrates: Suc-AAPF-pNA (SEQ ID NO: 4), Z-YPQ-pNA, and Z-LPY-pNA, each at 200 μM, by Rmep and subtilisin A, respectively, each at 1 μg/ml.
FIG. 8C show a representative graph of the hydrolysis of the substrate, Suc-AAPF-pNA (SEQ ID NO: 4), with a dilution series of NattoK. Suc-AAPF-pNA (SEQ ID NO: 4) was incubated […]. Hydrolysis was measured at 405 nm.
as §2

A further test relates to mixed gliadins. The experiment in a line: Degradation of mixed gliadins (SDS-PAGE). In kind it is biochemical, wheat. To be noted: gliadins 250 μg/ml, enzyme 57 μg/ml. As for the experimental part: FIG. 5A is a representative SDS-PAGE gel of non-digested gliadins (control) and Rmep-treated gliadins. Gliadins (250 μg/ml) in 50 mM Tris/HCl pH 8.0 were incubated with Rmep at 57 μg/ml. After 0, 15 min, 30 min and 2 h incubation 100 μl aliquots were removed, boiled and analyzed by SDS-PAGE and stained with COOMASSIE Brilliant Blue. The bold arrow (left) points to the position of the major band in the gliadin preparation; the thin arrow (right) to the 125 kDa band in the Rmep preparation, and the dotted arrows (right) to the gliadin degradation fragments.
FIG. 6A is a representative SDS-PAGE gel of non-digested gliadins (control) and subtilisin A-treated gliadins. Gliadins (250 μg/ml) in 50 mM Tris/HCl pH 8.0 were incubated with subtilisin A at 57 μg/ml. Experiments were conducted as described in the legend of FIG. 5 with subtilisin A instead of Rmep.
FIG. 8A is a representative SDS-PAGE gel of non-digested gliadins (control) and NattoK-treated gliadins. Mixed gliadins (G, 250 μg/ml) were incubated with NattoK (57 μg/ml) for 0, 15, 30 and 120 min. Left four lanes: controls without enzyme or gliadins, respectively, each at t=0 and 120 min. Arrow points to the major components in the gliadin mixture represented by α and γ-gliadins containing most of the immunogenic epitopes.
as §1

As to “Rmep: DEAE pooled fraction F2 of R. mucilaginosa ATCC 25296 extract with highest gluten-degrading enzyme activity; contains subtilisins C6R5V9_9MICC and C6R5W1_9MICC”, the “incubation time within which 33-mer peptide degradation was completed” value in test [1] (pH 8.0) is ≤ 30 min. The “hydrolysis of Z-QQP-pNA” value in the test with Z-QQP-pNA was “not hydrolyzed”. The “pH range over which the enzyme was active” value in the test on Suc-AAPF-pNA [2] is recorded as 6.0-10.0. Moreover, the “hydrolysis of Suc-AAPF-pNA” value in the test with Suc-AAPF-pNA [3] was “cleaved most rapidly”. In addition, the “incubation time within which mixed gliadins were degraded” value with mixed gliadins (50 mM TrisHCl pH 8.0) is reported as ≤ 15 min.

B1: subtilisin A: subtilisin A from Bacillus licheniformis (Sigma) (protein, listed as Bacillus licheniformis)
chain: MMRKKSFWLGMLTAFMLVFTMAFSDSASAAQPAKNVEKDYIVGFKSGVKTASVKKDIIKESGGKVDKQFRIINAAKAKLDKEALKEVKNDPDVAYVEEDHVAHALAQTVPYGIPLIKADKVQAQGFKGANVKVAVLDTGIQASHPDLNVVGGASFVAGEAYNTDGNGHGTHVAGTVAALDNTTGVLGVAPSVSLYAVKVLNSSGSGTYSGIVSGIEWATTNGMDVINMSLGGPSGSTAMKQAVDNAYARGVVVVAAAGNSGSSGNTNTIGYPAKYDSVIAVGAVDSNSNRASFSSVGAELEVMAPGAGVYSTYPTSTYATLNGTSMASPHVAGAAALILSKHPNLSASQVRNRLSSTATYLGSSFYYGKGLINVEAAAQ
With B1, the “33-mer peptide degradation after 2 h of incubation” value in test [1] (2 h) was 74%. Also, the “hydrolysis of Z-QQP-pNA” value with Z-QQP-pNA is listed as “not hydrolyzed”. Also, the “hydrolysis of Suc-AAPF-pNA” value in the test with Suc-AAPF-pNA [3] is reported as “cleaved most rapidly”. The “degradation of mixed gliadins in the t=0 sample” value in the test with mixed gliadins (pH 8.0, t=0) is listed as “near complete degradation”.
